Results: patent US8987258B2 (priority 2008, dated 2015)

Target: T1, SIRT1 (Homo sapiens, UniProt Q96EB6)
T1 sequence (Q96EB6 1-747): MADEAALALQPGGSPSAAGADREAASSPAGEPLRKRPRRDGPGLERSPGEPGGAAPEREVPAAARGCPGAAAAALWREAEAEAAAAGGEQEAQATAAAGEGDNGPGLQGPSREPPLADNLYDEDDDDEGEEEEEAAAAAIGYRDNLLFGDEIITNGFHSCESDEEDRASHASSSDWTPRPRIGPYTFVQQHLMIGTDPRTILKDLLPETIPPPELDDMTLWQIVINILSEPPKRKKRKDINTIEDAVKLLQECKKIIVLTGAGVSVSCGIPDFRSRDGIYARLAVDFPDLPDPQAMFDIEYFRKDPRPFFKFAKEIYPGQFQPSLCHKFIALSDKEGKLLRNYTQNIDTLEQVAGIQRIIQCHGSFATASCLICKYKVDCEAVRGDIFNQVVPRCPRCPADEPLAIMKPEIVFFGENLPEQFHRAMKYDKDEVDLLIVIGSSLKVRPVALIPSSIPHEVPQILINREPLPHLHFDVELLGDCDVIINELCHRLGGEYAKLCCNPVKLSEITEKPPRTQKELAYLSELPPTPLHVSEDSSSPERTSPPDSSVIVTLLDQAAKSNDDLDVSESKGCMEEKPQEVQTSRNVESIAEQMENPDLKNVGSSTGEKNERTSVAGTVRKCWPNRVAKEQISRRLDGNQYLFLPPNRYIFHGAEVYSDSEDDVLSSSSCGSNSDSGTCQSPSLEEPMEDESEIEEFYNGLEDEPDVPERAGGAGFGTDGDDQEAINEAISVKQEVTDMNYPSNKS
Test: Mass spectrometry based SIRT1 deacetylase activation assay
Type: biochemical
Settings: for EC1.5 μM: 0.5 μM peptide substrate, 120 μM βNAD+, 10 nM SIRT1, 25 min, 25° C.; for Emax: 25 min, mass spectrometry assay, read-out: % Fold Act. (percent maximum fold activation)
Excerpt: A mass spectrometry based assay was used to identify modulators of SIRT1 activity. The mass spectrometry based assay utilizes a peptide having 20 amino acid residues as follows: Ac-EE-K(biotin)-GQSTSSHSK(Ac)NleSTEG-K(5TMR)-EE-NH2 (SEQ ID NO: 1) wherein K(Ac) is an acetylated lysine residue and Nle is a norleucine. The peptide is labeled with the fluorophore 5TMR (excitation 540 nm/emission 580 nm) at the C-terminus. The sequence of the peptide substrate is based on p53 with several modifications. In addition, the methionine residue naturally present in the sequence was replaced with the norleucine because the methionine may be susceptible to oxidation during synthesis and purification.
The mass spectrometry assay is conducted as follows: 0.5 μM peptide substrate and 120 μM βNAD^+ is incubated with 10 nM SIRT1 for 25 minutes at 25° C. in a reaction buffer (50 mM Tris-acetate pH 8, 137 mM NaCl, 2.7 mM KCl, 1 mM MgCl2, 5 mM DTT, 0.05% BSA). Test compounds may be added to the reaction as described above. […] After the 25 minute incubation with SIRT1, 10 μL of 10% formic acid is added to stop the reaction. Reactions are sealed and frozen for later mass spec analysis. Determination of the mass of the substrate peptide allows for precise determination of the degree of acetylation (i.e. starting material) as compared to deacetylated peptide (product).
A control for inhibition of sirtuin activity is conducted by adding 1 μL of 500 mM nicotinamide as a negative control at the start of the reaction (e.g., permits determination of maximum sirtuin inhibition). A control for activation of sirtuin activity is conducted using 10 nM of sirtuin protein, with 1 μL of DMSO in place of compound, to determine the amount of deacetylation of the substrate at a given timepoint within the linear range of the assay. This timepoint is the same as that used for test compounds and, within the linear range, the endpoint represents a change in velocity.
For the above assay, SIRT1 protein was expressed and purified as follows. […] The protein was expressed by induction with 1 mM IPTG as an N-terminal His-tag fusion protein at 18° C. overnight and harvested at 30,000×g. Cells were lysed with lysozyme in lysis buffer (50 mM Tris-HCl, 2 mM Tris[2-carboxyethyl]phosphine (TCEP), 10 μM ZnCl2, 200 mM NaCl) and further treated with sonication for 10 min for complete lysis. The protein was purified over a Ni-NTA column (Amersham) and fractions containing pure protein were pooled, concentrated and run over a sizing column (Sephadex S200 26/60 global). The peak containing soluble protein was collected and run on an Ion-exchange column (MonoQ). Gradient elution (200 mM-500 mM NaCl) yielded pure protein. This protein was concentrated and dialyzed against dialysis buffer (20 mM Tris-HCl, 2 mM TCEP) overnight. The protein was aliquoted and frozen at −80° C. until further use.

Row | SMILES | EC1.5 μM | Emax [%]
1 | CS(=O)(=O)c1cccc(-c2cc(=O)c3cccc(NC(=O)c4cccnc4)c3o2)c1 [Compound 242] | C (EC1.5>25 μM) | < 200
2 | O=C(Nc1cccc(CN2CCCC2)n1)c1cccc2c(=O)cc(-c3cccc(C(F)(F)F)c3)oc12 [Compound 243, 4-oxo-N-(6-(pyrrolidin-1-ylmethyl)pyridin-2-yl)-2-(3-(trifluoromethyl)phenyl)-4H-chromene-8-carboxamide] | B (EC1.5 1-25 μM) | > 200
3 | O=C(Nc1cccc2c(=O)cc(-c3cccc(C(F)(F)F)c3)oc12)c1cccc(OC[C@@H](O)CO)n1 [Compound 244] | B (EC1.5 1-25 μM) | > 200
4 | O=C(Nc1cccc2c(=O)cc(-c3cccc(C(F)(F)F)c3)oc12)c1ccnc(OC[C@@H](O)CO)c1 [Compound 245] | C (EC1.5>25 μM) | < 200
5 | O=C(Nc1cccc2c(=O)cc(-c3cccc(C(F)(F)F)c3)oc12)c1cccnc1OC[C@@H](O)CO [Compound 246] | B (EC1.5 1-25 μM) | < 200
6 | O=C(Nc1cccc2c(=O)cc(-c3cccc(C(F)(F)F)c3)oc12)c1ccc(OC[C@@H](O)CO)nc1 [Compound 247] | C (EC1.5>25 μM) | < 200
7 | Cc1cnc(NC(=O)c2cccc3c(=O)cc(-c4ccncc4)oc23)s1 [Compound 248, N-(5-methylthiazol-2-yl)-4-oxo-2-(pyridin-4-yl)-4H-chromene-8-carboxamide] | C (EC1.5>25 μM) | < 200
8 | CS(=O)(=O)c1ccc(-c2cc(=O)c3cccc(NC(=O)c4ccccn4)c3o2)cc1 [Compound 249] | C (EC1.5>25 μM) | < 200
9 | COc1ccccc1-c1cc(=O)c2cccc(NC(=O)c3cnccn3)c2o1 [Compound 254] | C (EC1.5>25 μM) | < 200
10 | COc1ccccc1-c1cc(=O)c2cccc(NC(=O)c3cscn3)c2o1 [Compound 255] | C (EC1.5>25 μM) | < 200
11 | O=C(Nc1cccc2c(=O)cc(-c3ccccc3C(F)(F)F)oc12)c1ccncc1 [Compound 258] | B (EC1.5 1-25 μM) | > 200
12 | O=C(Nc1cccc2c(=O)cc(-c3ccccc3C(F)(F)F)oc12)c1cncnc1 [Compound 260] | C (EC1.5>25 μM) | < 200
13 | O=C(Nc1cccc2c(=O)cc(-c3ccccc3C(F)(F)F)oc12)c1cccnc1 [Compound 262] | B (EC1.5 1-25 μM) | < 200
14 | O=C(Nc1cccc2c(=O)cc(-c3ccccc3OC(F)F)oc12)c1cnccn1 [Compound 263] | C (EC1.5>25 μM) | < 200
15 | O=C(Nc1cccc2c(=O)cc(-c3ccccc3OC(F)F)oc12)c1cscn1 [Compound 264] | C (EC1.5>25 μM) | < 200

The next lines start with the values.

Row | EC1.5 μM | Emax [%] | SMILES
16 | A (EC1-5<1.0) | > 200 | Cn1ccnc1C(=O)Nc1cccc2c(=O)cc(-c3ccccc3C(F)(F)F)oc12 [Compound 250]
17 | A (EC1-5<1.0) | > 200 | O=C(Nc1cccc2c(=O)cc(-c3ccccc3C(F)(F)F)oc12)c1ccccn1 [Compound 251]
18 | A (EC1-5<1.0) | > 200 | O=C(Nc1cccc2c(=O)cc(-c3ccccc3C(F)(F)F)oc12)c1ncccn1 [Compound 252]
19 | A (EC1-5<1.0) | > 200 | O=C(Nc1cccc2c(=O)cc(-c3ccccc3C(F)(F)F)oc12)c1ccncn1 [Compound 253]
20 | A (EC1-5<1.0) | > 200 | Cn1cnc(C(=O)Nc2cccc3c(=O)cc(-c4ccccc4C(F)(F)F)oc23)c1 [Compound 256]
21 | A (EC1-5<1.0) | > 200 | Cn1nccc1C(=O)Nc1cccc2c(=O)cc(-c3ccccc3C(F)(F)F)oc12 [Compound 257]
22 | B (EC1.5 1-25 μM) | > 200 | Cn1ccc(C(=O)Nc2cccc3c(=O)cc(-c4ccccc4C(F)(F)F)oc23)n1 [Compound 259]
23 | A (EC1-5<1.0) | > 200 | O=C(Nc1cccc2c(=O)cc(-c3ccccc3C(F)(F)F)oc12)c1cnccn1 [Compound 261]
